ChEMBL document CHEMBL1909046, “DrugMatrix in vitro pharmacology data”

Legend:
[1] = DRUGMATRIX: beta-Lactamase enzyme inhibition (substrate: Nitrocefin); set-up: species or system Bacillus cereus; details: Not Active = under 50% inhibition at 10 µM
[2] = target: T1, Vasoactive intestinal polypeptide receptor 1 (Homo sapiens, UniProt P32241); type: cell membranes, Membrane; details: ht-29; further: in other assays of this panel Not Active means under 50% inhibition at 10 µM
T1 sequence (P32241 whole entry): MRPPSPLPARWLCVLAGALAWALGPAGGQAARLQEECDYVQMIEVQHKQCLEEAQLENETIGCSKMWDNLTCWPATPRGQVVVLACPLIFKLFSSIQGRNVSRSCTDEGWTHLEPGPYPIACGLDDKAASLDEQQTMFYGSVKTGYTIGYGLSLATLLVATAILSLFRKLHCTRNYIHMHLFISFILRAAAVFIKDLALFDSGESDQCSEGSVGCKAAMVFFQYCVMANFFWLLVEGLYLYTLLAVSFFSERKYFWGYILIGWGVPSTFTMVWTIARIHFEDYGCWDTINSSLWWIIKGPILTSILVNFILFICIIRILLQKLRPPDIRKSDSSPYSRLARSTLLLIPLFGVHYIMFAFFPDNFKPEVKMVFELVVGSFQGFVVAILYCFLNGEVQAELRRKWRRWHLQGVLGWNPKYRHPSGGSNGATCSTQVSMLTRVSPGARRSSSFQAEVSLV

[3] = target: Vasopressin V1a receptor (Homo sapiens, UniProt P37288); type: cell membranes, Membrane; details: hek293; further: in other assays of this panel Not Active means under 50% inhibition at 10 µM
Chain of Vasopressin V1a receptor (P37288 whole entry): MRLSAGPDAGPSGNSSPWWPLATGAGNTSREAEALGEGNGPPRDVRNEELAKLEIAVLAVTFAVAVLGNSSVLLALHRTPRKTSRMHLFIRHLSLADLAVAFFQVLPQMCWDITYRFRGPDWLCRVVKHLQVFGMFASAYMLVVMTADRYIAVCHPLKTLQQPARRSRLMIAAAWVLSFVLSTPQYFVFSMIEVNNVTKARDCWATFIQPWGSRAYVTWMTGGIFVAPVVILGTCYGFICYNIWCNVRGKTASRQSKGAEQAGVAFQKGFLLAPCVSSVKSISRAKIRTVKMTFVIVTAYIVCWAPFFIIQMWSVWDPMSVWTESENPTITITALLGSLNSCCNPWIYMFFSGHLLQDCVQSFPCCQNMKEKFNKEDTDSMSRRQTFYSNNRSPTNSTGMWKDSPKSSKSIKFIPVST

[4] = DRUGMATRIX: GABAA, Chloride Channel, TBOB radioligand binding (ligand: [3H] TBOB); type: cell membranes, Rattus norvegicus, Wistar, Cerebral cortex, Membrane; details: Not Active = under 50% inhibition at 10 µM
[5] = target: Kappa-type opioid receptor (Homo sapiens, UniProt P41145); test: DRUGMATRIX: Opiate kappa (OP2, KOP) radioligand binding (ligand: [3H] Diprenorphine); type: cell membranes, HEK293, Membrane; details: hek293; Not Active = under 50% inhibition at 10 µM
Chain of Kappa-type opioid receptor (P41145 whole entry): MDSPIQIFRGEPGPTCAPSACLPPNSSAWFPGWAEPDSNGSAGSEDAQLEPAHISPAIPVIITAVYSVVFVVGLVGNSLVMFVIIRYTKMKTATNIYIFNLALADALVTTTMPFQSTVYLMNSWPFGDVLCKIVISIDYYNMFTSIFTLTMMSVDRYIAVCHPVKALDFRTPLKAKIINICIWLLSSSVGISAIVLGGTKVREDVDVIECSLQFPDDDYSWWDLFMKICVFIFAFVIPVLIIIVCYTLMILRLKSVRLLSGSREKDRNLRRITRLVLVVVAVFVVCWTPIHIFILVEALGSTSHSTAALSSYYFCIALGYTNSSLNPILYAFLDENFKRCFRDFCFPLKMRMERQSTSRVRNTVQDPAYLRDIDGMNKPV

[6] = target: Mitogen-activated protein kinase 1 (Homo sapiens, UniProt P28482); test: DRUGMATRIX: Protein Serine/Threonine Kinase, ERK2 enzyme inhibition (substrate: Myelin Basic Protein); set-up: species or system Escherichia coli; details: Not Active = under 50% inhibition at 10 µM
Chain of Mitogen-activated protein kinase 1 (P28482 whole entry): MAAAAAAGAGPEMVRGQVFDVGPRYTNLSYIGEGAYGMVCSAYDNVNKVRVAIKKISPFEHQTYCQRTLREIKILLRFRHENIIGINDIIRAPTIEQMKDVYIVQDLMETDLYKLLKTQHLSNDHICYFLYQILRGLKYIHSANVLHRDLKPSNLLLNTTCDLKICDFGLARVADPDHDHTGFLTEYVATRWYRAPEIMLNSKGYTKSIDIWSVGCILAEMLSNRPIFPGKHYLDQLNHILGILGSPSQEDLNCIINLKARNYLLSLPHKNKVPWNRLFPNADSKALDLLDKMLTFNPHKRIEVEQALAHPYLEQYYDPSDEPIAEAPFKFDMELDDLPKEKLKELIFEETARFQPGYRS

[7] = target: T2, Adenosine receptor A3 (Homo sapiens, UniProt P0DMS8); type: cell membranes, CHO-K1, Membrane; details: cho-k1;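 further: radioligand binding assay with AB-MECA serving as the labeled ligand; in other assays of this panel Not Active means under 50% inhibition at 10 µM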
T2 sequence (P0DMS8 whole entry): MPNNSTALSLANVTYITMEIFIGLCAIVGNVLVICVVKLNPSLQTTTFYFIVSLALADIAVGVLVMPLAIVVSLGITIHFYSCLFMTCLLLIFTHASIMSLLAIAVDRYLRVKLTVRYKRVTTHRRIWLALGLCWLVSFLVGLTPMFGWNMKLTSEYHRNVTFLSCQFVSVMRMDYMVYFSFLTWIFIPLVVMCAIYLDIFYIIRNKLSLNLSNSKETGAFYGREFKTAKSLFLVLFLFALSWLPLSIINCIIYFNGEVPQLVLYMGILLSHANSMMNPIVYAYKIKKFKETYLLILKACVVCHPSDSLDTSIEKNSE

COc1cc2nc(N3CCN(C(=O)c4ccco4)CC3)nc(N)c2cc1OC [PRAZOSIN]
Not Active: IC50 [1] | Ki [1] | IC50 [2] | IC50 [3] | IC50 [4] | Ki [4] | IC50 [5] | IC50 [6] | IC50 [7]

NNc1nncc2ccccc12 [HYDRALAZINE]
Not Active: IC50 [1] | Ki [1] | IC50 [2] | IC50 [3] | IC50 [4] | Ki [4] | IC50 [5] | IC50 [6] | IC50 [7]

C[C@]12C=CC(=O)C=C1CC[C@@H]1[C@@H]2[C@@H](O)C[C@@]2(C)[C@H]1CC[C@]2(O)C(=O)CO [PREDNISOLONE]
Not Active: IC50 [1] | Ki [1] | IC50 [2] | IC50 [3] | IC50 [4] | Ki [4] | IC50 [5] | IC50 [6] | IC50 [7]

NCCCC(O)(P(=O)(O)O)P(=O)(O)O [ALENDRONIC ACID]
Not Active: IC50 [1] | Ki [1] | IC50 [2] | IC50 [3] | IC50 [4] | Ki [4] | IC50 [5] | IC50 [6] | IC50 [7]

O=C1O[C@H]([C@@H](O)CO)C(O)=C1O [ASCORBIC ACID]
Not Active: IC50 [1] | Ki [1] | IC50 [2] | IC50 [3] | IC50 [4] | Ki [4] | IC50 [5] | IC50 [6] | IC50 [7]

C[n+]1ccccc1/C=N/O.[Cl-] [PRALIDOXIME CHLORIDE]
Not Active: IC50 [1] | Ki [1] | IC50 [2] | IC50 [3] | IC50 [4] | Ki [4] | IC50 [5] | IC50 [6] | IC50 [7]

COc1ccc2c3c1O[C@H]1C[C@@H](O)C=C[C@@]31CCN(C)C2 [GALANTAMINE]
Not Active: IC50 [1] | Ki [1] | IC50 [2] | IC50 [3] | IC50 [4] | Ki [4] | IC50 [5] | IC50 [6] | IC50 [7]

COC1=C(OC)C(=O)C(CCCCCCCCCCO)=C(C)C1=O [IDEBENONE]
Not Active: IC50 [1] | Ki [1] | IC50 [2] | IC50 [3] | IC50 [4] | Ki [4] | IC50 [5] | IC50 [6] | IC50 [7]

CCC1(CCC(C)C)C(=O)NC(=O)NC1=O [AMOBARBITAL]
Not Active: IC50 [1] | Ki [1] | IC50 [2] | IC50 [3] | IC50 [4] | Ki [4] | IC50 [5] | IC50 [6] | IC50 [7]

COc1ccc2[nH]cc(CCNC(C)=O)c2c1 [MELATONIN]
Not Active: IC50 [1] | Ki [1] | IC50 [2] | IC50 [3] | IC50 [4] | Ki [4] | IC50 [5] | IC50 [6] | IC50 [7]

CN(C)CC[C@@H](c1ccc(Cl)cc1)c1ccccn1 [DEXCHLORPHENIRAMINE]
Not Active: IC50 [1] | Ki [1] | IC50 [2] | IC50 [3] | IC50 [4] | Ki [4] | IC50 [5] | IC50 [6] | IC50 [7]

COc1ccc2cc3[n+](cc2c1OC)CCc1cc2c(cc1-3)OCO2.[Cl-] [BERBERINE CHLORIDE]
Not Active: IC50 [1] | Ki [1] | IC50 [2] | IC50 [3] | IC50 [4] | Ki [4] | IC50 [5] | IC50 [6] | IC50 [7]

OC(CCCN1CCCCC1)(c1ccccc1)c1ccccc1 [DIPHENIDOL]
Not Active: IC50 [1] | Ki [1] | IC50 [2] | IC50 [3] | IC50 [4] | Ki [4] | IC50 [5] | IC50 [6] | IC50 [7]

CC(=O)O[C@H]1C(=O)[C@@]2(C)[C@H]([C@H](OC(=O)c3ccccc3)[C@]3(O)C[C@H](OC(=O)[C@H](O)[C@@H](NC(=O)c4ccccc4)c4ccccc4)C(C)=C1C3(C)C)[C@]1(OC(C)=O)CO[C@@H]1C[C@@H]2O [PACLITAXEL]
Not Active: IC50 [1] | Ki [1] | IC50 [2] | IC50 [3] | IC50 [4] | Ki [4] | IC50 [5] | IC50 [6] | IC50 [7]

CC1(C)S[C@@H]2[C@H](NC(=O)[C@H](N)c3ccccc3)C(=O)N2[C@H]1C(=O)O [AMPICILLIN]
Not Active: IC50 [1] | Ki [1] | IC50 [2] | IC50 [3] | IC50 [4] | Ki [4] | IC50 [5] | IC50 [6] | IC50 [7]

Cn1c(=O)c2c(ncn2CC(O)CO)n(C)c1=O (stereo unspecified) [DYPHYLLINE]
Not Active: IC50 [1] | Ki [1] | IC50 [2] | IC50 [3] | IC50 [4] | Ki [4] | IC50 [5] | IC50 [6] | IC50 [7]

CN(C)[C@@H]1C(O)=C(C(N)=O)C(=O)[C@@]2(O)C(O)=C3C(=O)c4c(O)ccc(Cl)c4[C@@](C)(O)[C@H]3C[C@@H]12 [CHLORTETRACYCLINE]
Not Active: IC50 [1] | Ki [1] | IC50 [2] | IC50 [3] | IC50 [4] | Ki [4] | IC50 [5] | IC50 [6] | IC50 [7]

Cn1c(=O)c2[nH]cnc2n(C)c1=O.Cn1c(=O)c2[nH]cnc2n(C)c1=O.NCCN [AMINOPHYLLINE]
Not Active: IC50 [1] | Ki [1] | IC50 [2] | IC50 [3] | IC50 [4] | Ki [4] | IC50 [5] | IC50 [6] | IC50 [7]

C[C@H]1O[C@@H](n2cc(F)c(=O)[nH]c2=O)[C@H](O)[C@@H]1O [DOXIFLURIDINE]
Not Active: IC50 [1] | Ki [1] | IC50 [2] | IC50 [3] | IC50 [4] | Ki [4] | IC50 [5] | IC50 [6] | IC50 [7]
